From US12214036B2, “Combination therapy comprising AXL/MER and PD-1/PD-L1 inhibitors” (Incyte Corporation, priority 2020, dated 2025)
Entries after “also recorded” stand apart in the source; their conditions may differ.

System: human PBMCs co-cultured with H1299 cells
Experiment: H1299 / PBMC co-culture cytokine assay
Type: cell-based
Conditions: 4 days, stimulated PBMCs + H1299, FIG. 6
Method: The ability of Compound 1 to cooperate with checkpoint blockade to further boost antitumor responses was evaluated. H1299 lung cancer cells were co-cultured with stimulated human PBMCs treated with Compound 1, anti-human programmed cell death (PD)-1 antibody retifanlimab or the combination, and production of proinflammatory cytokines was assessed in two different experiments (FIG. 6).
H1299 cells were co-cultured with human PBMCs, each at 4 or 16×10^4 cells/mL in RPMI containing 10% FBS, 100 U/mL of penicillin-streptomycin (ThermoFisher Scientific; #15140-122) and 1× beta-mercaptoethanol (ThermoFisher Scientific; #21985-023). Compound 1 or retifanlimab were added as single agents or in combination to the cells. Anti-CD3 (BD Biosciences #555336), anti-CD28 (BD Biosciences #555725) or SEA (Toxin Technology, Sarasota, Fla.; #AT101red) were added at a final concentration of 1 μg/mL, 0.5 μg/mL or 100 ng/mL, respectively, to stimulate cell growth. Cultures were incubated at 37° C. in 5% CO2 incubator for 4 days. The supernatant was collected for cytokine analysis using a multiplex assay system (custom human ProcartaPlex Luminex kit, ThermoFisher Scientific; #PPX-15-MXRWE6P).

retifanlimab: humanized, IgG4 monoclonal antibody that binds to human PD-1; heavy chain SEQ ID NO:2, light chain SEQ ID NO:3
proinflammatory cytokine production: induced these cytokines in a subset of donors; also recorded: induction of proinflammatory cytokines
